According to patent US7534871B2, “Preparation and use of carbohydrate-based bicyclic ring structures with antimicrobial and cytostatic activity” (Kemin Pharma B.V.B.A., priority 2004, dated 2009):
In brackets after ≈: the same amount, converted by molar mass. Where two headings read alike, the source gives them in different places.

What was measured:
CMV Davis strain = assay: Anti-CMV activity: plaque reduction in HEL cells, Davis strain; format: cell-based, human cytomegalovirus (CMV); conditions: Human betaherpesvirus 5, HEL; Table 6; reduce virus plaque formation by 50%; virus input 100 PFU; read-out: Anti-CMV activity IC50 Davis strain
HEL cells = assay: Cytotoxicity: alteration of cell morphology (MCC); format: cell-based, human; conditions: minimum cytotoxic concentration that causes a microscopically detectable alteration of cell morphology
[1] = system: human T-lymphocyte cells (CEM/0); assay: Cytostatic activity: inhibition of proliferation of CEM/0 cells; format: cell-based; conditions: CCRF-CEM, 50% inhibitory concentration, cell proliferation, read-out: IC50 CEM/0
Procedure: (§1) The compounds were tested for anti-tumor activity via the inhibitory effects on the proliferation of murine leukemia cells (L1210/0), murine mammary carcinoma cells (FM3A), human T-lymphocyte cells (Molt4/C8, CEM/0) and human cervix carcinoma cells (HeLa).

VV = assay: microbe, parasite or virus in culture; format: cell-based; conditions: Orthopoxvirus vaccinia, E6SM, read-out: EC50 VV (E6SM)
[2] = system: murine leukemia cells (L1210/0); assay: Cytostatic activity: inhibition of proliferation of L1210/0 cells; format: cell-based; conditions: Mus musculus, L1210/0; 50% inhibitory concentration, cell proliferation; read-out: IC50 L1210/0
Procedure: as §1

[3] = system: murine mammary carcinoma cells (FM3A); assay: Cytostatic activity: inhibition of proliferation of FM3A cells; format: cell-based; conditions: Mus musculus, 50% inhibitory concentration, cell proliferation, read-out: IC50 FM3A/0
Procedure: as §1

VZV YS = assay: Anti-viral activity: VZV-induced plaque formation in HEL cell cultures, YS strain; format: cell-based, varicella zoster virus (VZV); conditions: Human alphaherpesvirus 3, VZV-induced plaque formation in human embryonic lung HEL cell cultures, 50%
[4] = system: human T-lymphocyte cells (Molt4/C8); assay: Cytostatic activity: inhibition of proliferation of Molt4/C8 cells; format: cell-based; conditions: Molt4/C8, 50% inhibitory concentration, cell proliferation, read-out: IC50 Molt4/C8
Procedure: as §1

HSV-1 (KOS) = assay: Anti-viral activity: HSV-1-induced cytopathicity in human embryo fibroblast E6SM cell cultures; format: cell-based, herpes simplex virus (HSV); conditions: Human alphaherpesvirus 1, 50%
[5] = Cytotoxicity: inhibition of HEL cell growth (CC50); format: cell-based; conditions: human; concentration required to reduce cell growth by 50%; HEL cells, three days
Procedure: The medium was then replaced by MEM containing various concentrations of the test compound. After three days incubation at 37° C., when the cell monolayer was 70% confluent, the cell number was determined with the Coulter counter. The minimum cytotoxic concentration was defined as the concentration required to reduce cell growth by 50%.

HSV-2 (G) = assay: Anti-viral activity: HSV-2-induced cytopathicity in human embryo fibroblast E6SM cell cultures; format: cell-based, herpes simplex virus (HSV); conditions: Human alphaherpesvirus 2, 50%
VZV OKA = assay: microbe, parasite or virus in culture; format: cell-based, varicella zoster virus (VZV); conditions: Human alphaherpesvirus 3, HEL, read-out: EC50 VZV (HEL) OKA
CMV AD-169 strain = assay: Anti-CMV activity: plaque reduction in HEL cells, AD-169 strain; format: cell-based, human cytomegalovirus (CMV); conditions: Human betaherpesvirus 5, AD169, HEL, reduce virus plaque formation by 50%, virus input 100 PFU
[6] = system: human cervix carcinoma cells (HeLa); assay: Cytostatic activity: inhibition of proliferation of HeLa cells; format: cell-based; conditions: 50% inhibitory concentration, cell proliferation
Procedure: as §1

MRSA ATCC33591 = assay: Anti-bacterial activity, Bioscreen C growth curve: MRSA; format: cell-based, methicillin-resistant Staphylococcus aureus (MRSA); conditions: Staphylococcus aureus, ATCC 33591 / LMG10147 / MRSA; 25 PPM; 35° C., 16 hours; negative control = 100; read-out: % of growth at 25 PPM compared to the negative control, MRSA ATCC33591 LMG10147
Procedure: (§2) For the determination of the anti-bacterial and anti-fungal activity the Bioscreen C Analyser Labsystems, Finland, was used. This is an automated reader-incubator. It measures growth continuously by vertical photometry (optical density), processes the data and provides a print out of the results. The area under the growth curve is automatically determined via the Biolink software.
(§3) The inoculum size of the bacteria is standardized to approximately 5×10^5 CFU/ml.
(§4) For bacteria, the 100-honey-well plates containing test chemical, Mueller-Hinton broth and inoculum (=sample) are incubated at 35° C. for 16 hours. Also wells without inoculum are incubated (=blanco). Yeasts are incubated 35° C. for 24 hours in RPMI 1640+MOPS buffer at 165 mM. Moulds also in RPMI 1640+MOPS buffer at 165 mM are incubated 25° C. for 5 days. All micro-organisms are screened against a known concentration of the reference antibiotics or antimycotics such as vancomycin, penicillin G, gentamicin or amphotericin B. The growth curve and the area under the growth curve can be determined using the Biolink software; this is illustrated in FIG. 1.
(§5) The area of the blanco is subtracted from the area of the sample, this number (delta) gives us an indication of the biological activity of the molecules tested and can be expressed as a % of growth at a specific dose compared to a negative control that has a value of 100, illustrated in FIG. 2. Screening of each dose of a specific compound is repeated 5 times. The dose used for all new molecules in all tests is 25 PPM or 25 μg/ml.
(§6) In Table 4 the results of the anti-bacterial activity is given for the new molecules. The micro-organisms used are Staphylococcus aureus, MRSA, VRE, Enterococcus faecalis, Salmonella typhimurium and Pseudomonas aeruginosa.

HIV-1 (IIIB) = assay: microbe, parasite or virus in culture; format: cell-based; conditions: Human immunodeficiency virus 1, IIIB, CCRF-CEM; concentration required to inhibit HIV-induced cytopathicity in human CEM cell cultures by 50%
[7] = system: Microsporum gypseum IHEM 3999 - ATCC 14683; assay: Anti-fungal activity, Bioscreen C growth curve: Microsporum gypseum (mold); format: cell-based; conditions: Nannizzia gypsea, ATCC14683, 120 h; 25 PPM; 25° C., 5 days; negative control = 100; read-out: % of growth at a dose of 25 PPM compared to the negative control, Microsporum gypseum IHEM 3999 - ATCC 14683
Procedure: as §2
The inoculum size of the mould is standardized to 0.4-5.0×10^4 CFU/ml.
as §4, §5
(§7) In Table 5 the anti-fungal activity is given for the new molecules. The micro-organisms used were Candida albicans (a typical yeast) and Microsporum gypseum (a typical mold).
as §2, with “Also for” for “For”, “the” for “the anti-bacterial and”, “Labsystems Oy, Finland” for “Labsystems, Finland,”, “used.” for “used. This is an automated reader-incubator.”
(§8) The inoculum size of the yeast is standardized to 0.5-2.5×10^3 CFU/ml. The inoculum size of the mould is standardized to 0.4-5.0×10^4 CFU/ml. Yeasts are incubated 35° C. for 24 hours in RPMI 1640+MOPS buffer at 165 mM. Moulds also in RPMI 1640+MOPS buffer at 165 mM are incubated 25° C. for 5 days.
(§9) As a control, all micro-organisms are screened against some reference antibiotics with known MIC. Screening of each dose of a specific compound is repeated 5 times.

VRE ATCC700221 = assay: Anti-bacterial activity, Bioscreen C growth curve: VRE; format: cell-based, vancomycin-resistant Enterococcus (VRE); conditions: Enterococcus, 35° C., 16 hours, negative control = 100, read-out: % of growth at 25 PPM compared to the negative control, VRE ATCC700221
Procedure: as §2, §3, §4, §5, §6

[8] = system: P. aeruginosa ATCC27853 LMG16217; assay: Anti-bacterial activity, Bioscreen C growth curve: P. aeruginosa; format: cell-based, Pseudomonas aeruginosa; conditions: Pseudomonas aeruginosa; 25 PPM; 35° C., 16 hours; negative control = 100; read-out: % of growth at 25 PPM compared to the negative control, P. aeruginosa ATCC27853 LMG16217
Procedure: as §2, §3, §4, §5, §6

HIV-2 (ROD) = assay: Anti-viral activity: HIV-2-induced cytopathicity in human CEM cell cultures; format: cell-based; conditions: Human immunodeficiency virus 2, CCRF-CEM; concentration required to inhibit HIV-induced cytopathicity in human CEM cell cultures by 50%
[9] = system: E. faecalis ATTC29212 LMG 8222; assay: Anti-bacterial activity, Bioscreen C growth curve: E. faecalis; format: cell-based; conditions: Enterococcus faecalis, LMG8222, 35° C., 16 hours, negative control = 100, read-out: % of growth at 25 PPM compared to the negative control, E. faecalis ATTC29212 LMG 8222
Procedure: as §2, §3, §4, §5, §6

[10] = system: S. aureus ATTC29213 LMG10147; assay: Anti-bacterial activity, Bioscreen C growth curve: S. aureus; format: cell-based; conditions: Staphylococcus aureus, 35° C., 16 hours, negative control = 100, read-out: % of growth at 25 PPM compared to the negative control, S. aureus ATTC29213 LMG10147
Procedure: as §2, §3, §4, §5, §6

[11] = system: Candida albicans IHEM 10284 - ATCC 24433; assay: Anti-fungal activity, Bioscreen C growth curve: Candida albicans (yeast); format: cell-based; conditions: Candida albicans, ATCC24433; 25 PPM; 35° C., 24 hours; negative control = 100; read-out: % of growth at a dose of 25 PPM compared to the negative control, Candida albicans IHEM 10284 - ATCC 24433
Procedure: as §2
The inoculum size of the yeast is standardized to 0.5-2.5×10^3 CFU/ml.
as §4, §5, §7
as §2, with “Also for” for “For”, “the” for “the anti-bacterial and”, “Labsystems Oy, Finland” for “Labsystems, Finland,”, “used.” for “used. This is an automated reader-incubator.”
as §8, §9

[12] = system: S. typhimurium ATTC700408; assay: Anti-bacterial activity, Bioscreen C growth curve: S. typhimurium; format: cell-based; conditions: Salmonella enterica, LMG16217 / TYPHIMURIUM, 35° C., 16 hours, negative control = 100, read-out: % of growth at 25 PPM compared to the negative control, S. typhimurium ATTC700408 LMG16217
Procedure: as §2, §3, §4, §5, §6

[13] = Table 2, read-out: IC50 CMV AD-169 Strain

Row | Compound | IC50 [1] [µg/mL] | EC50 (VV) [µg/mL] | IC50 [2] [µg/mL] | IC50 [3] [µg/mL] | EC50 (VZV YS) [µg/mL] | IC50 [4] [µg/mL] | EC50 (HSV-1 (KOS)) [µg/mL] | EC50 (HSV-2 (G)) [µg/mL] | EC50 (VZV OKA) [µg/mL] | IC50 [6] [µg/mL] | activity at 25 ppm (MRSA ATCC33591) [%] | EC50 (HIV-1 (IIIB)) [µg/mL] | activity at 25 ppm [7] [%] | activity at 25 ppm (VRE ATCC700221) [%] | activity at 25 ppm [8] [%] | EC50 (HIV-2 (ROD)) [µg/mL] | activity at 25 ppm [9] [%] | activity at 25 ppm [10] [%] | activity at 25 ppm [11] [%] | activity at 25 ppm [12] [%] | further results
1 | c1ccc(CO[C@@H]2[C@@H](OCc3ccccc3)[C@H](Sc3ccccc3)O[C@@H]3CO[C@@H](c4ccccc4)O[C@@H]23)cc1 [KPE00001044] | > 200 | > 3.2 | > 200 | 130 ± 61 (≈ 240 µM) | > 2 | > 200 | > 3.2 | > 3.2 | > 2 |  |  |  |  |  |  |  |  |  |  |  | IC50 (CMV Davis strain): > 2 µg/mL; Cytotoxicity Cell morphology (MCC) (HEL cells): 5 μg/ml; CC50 at 3 days [5]: > 50 µg/mL; IC50 (CMV AD-169 strain; Table 6, read-out: Anti-CMV activity IC50 AD-169 strain): > 2 µg/mL
2 | CO[C@@H]1[C@@H](OC)[C@H](Sc2ccccc2)O[C@@H]2COCC=CCO[C@@H]12 [KPE00001014] | > 200 | > 400 | > 200 | > 200 | > 50 | > 200 | > 400 | 240 (≈ 681 µM) | > 50 | > 200 | 113 | > 100 | 69 | 88.4 | 96.7 | > 100 | 95 | 105 | 96 | 87.2 | IC50 (CMV AD-169 strain; [13]): > 50 µg/mL
3 | CO[C@@H]1[C@@H](OC)[C@H](c2ccccc2)O[C@@H]2COC(=O)CC/C=C/CCC(=O)O[C@@H]12 [KPE00001018] | 132 ± 13 (≈ 326 µM) | > 16 | > 200 | > 200 | > 50 | > 200 | > 16 | > 16 | > 50 | > 200 | 100 | > 20 | 79 | 94.5 | 59.8 | > 100 | 94.9 | 100 | 93.5 | 96.6 | IC50 (CMV AD-169 strain; [13]): > 20 µg/mL
4 | CO[C@@H]1[C@@H](OC)[C@H](O)[C@@H](CO)O[C@H]1Cc1ccccc1 [KPE00001020] |  |  |  |  |  |  |  |  |  |  | 99 |  | 78 | 99 | 94.4 |  | 98.4 | 97.9 | 91 | 92.3 | 
5 | CO[C@@H]1[C@@H](OC)[C@H](c2ccccc2)O[C@@H]2COC(=O)CCC=CCCC(=O)O[C@@H]12 [KPE00001040] |  |  |  |  |  |  |  |  |  |  | 99.7 |  | 64 | 83.4 | 78.5 |  | 85.1 | 94 | 101 | 89 | 
6 | CO[C@@H]1[C@@H](OC)[C@H](c2ccccc2)O[C@@H]2COC(=O)CCC3OC3CCC(=O)O[C@@H]12 (stereo partly shown) [KPE00001039] |  |  |  |  |  |  |  |  |  |  | 102 |  | 77 | 93 | 91.3 |  | 94.1 | 97.7 | 96.4 | 97 | 
7 | CO[C@@H]1[C@@H](OC)[C@H](Sc2ccccc2)O[C@@H]2COC(=O)CC/C=C/CCC(=O)O[C@@H]12 [KPE00001002] | > 200 | > 16 | > 200 | > 200 | > 50 | > 200 | > 16 | > 16 | > 20 | > 200 | 100 | > 100 | 64 | 94 | 92.2 | > 20 | 94.9 | 93.2 | 105 | 93.7 | IC50 (CMV AD-169 strain; [13]): > 20 µg/mL
